Test system: rat small-intestinal brush border membrane vesicles
Experiment: Inhibitory effect on 33PO4 uptake into rat small-intestinal brush border membrane vesicles (rapid filtration method)
Assay type: biochemical
Conditions: 33PO4 uptake into rat small-intestinal BBMVs; test compound 1 µM; reacted for 60 seconds
Method in brief: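 Uptake of ^33PO4 was measured by rapid filtration and liquid scintillation counting of filter-retained vesicles, after quenching with ice-cold 110 mM NaCl/1 mM KH2PO4/10 mM HEPES pH 7.5. Vesicles were brush border membranes from the upper small intestine of female Wistar rats aged 4–5 weeks.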

Row | SMILES | Rate of uptake inhibition (%) (1 µM)
1 | C[C@]12CCCN1N(Cc1ccccc1C#N)C(=O)C(C(=O)Nc1cc(F)c(Br)c(F)c1)=C2O [Example 218] | 82%
2 | C[C@]12CCCN1N(Cc1ccccc1Cl)C(=O)C(C(=O)Nc1cc(F)c(Br)c(F)c1)=C2O [Example 219] | 95%
3 | C[C@]12CCCN1N(Cc1cccc(C#N)c1)C(=O)C(C(=O)Nc1cc(F)c(Br)c(F)c1)=C2O [Example 220] | 96%
4 | C[C@]12CCCN1N(Cc1cccc(Cl)c1)C(=O)C(C(=O)Nc1cc(F)c(Br)c(F)c1)=C2O [Example 221] | 82%
5 | C[C@]12CCCN1N(Cc1ccc(C#N)cc1)C(=O)C(C(=O)Nc1cc(F)c(Br)c(F)c1)=C2O [Example 222] | 97%
6 | C[C@]12CCCN1N(Cc1ccc(Cl)cc1)C(=O)C(C(=O)Nc1cc(F)c(Br)c(F)c1)=C2O [Example 223] | 77%
7 | C[C@]12CCCN1N(CCCC(F)(F)F)C(=O)C(C(=O)Nc1ccc(C(F)(F)F)cc1-c1cc(C(F)(F)F)ncn1)=C2O [Example 234, (4aR)-4-Hydroxy-4a-methyl-2-oxo-1-(4,4,4-trifluorobutyl)-N-[4-(trifluoromethyl)-2-[6-(trifluoromethyl)pyrimidin-4-yl]henyl]-6,7-dihydro-5H-pyrrolo[1,2-b]pyridazine-3-carboxamide] | 73%
8 | CCOC(=O)CCCCCCN1C(=O)C(C(=O)Nc2ccc(C(F)(F)F)cc2-c2ccc(C(F)(F)F)nc2)=C(O)[C@@]2(C)CCCN12 [Example 235, Ethyl 7-[(4aR)-4-hydroxy-4a-methyl-2-oxo-3-[[4-(trinuoromethyl)-2-[6-(trifluoromethyl)pyridin-3-yl]phenyl]carbamoyl]-6,7-dihydro-5H-pyrrolo[1,2-b]pyridazin-1-yl]heptanoate] | 65%
9 | COCCOCCOCCCCCCCCN1C(=O)C(C(=O)Nc2ccc(C(F)(F)F)cc2-c2cc(C(F)(F)F)ncn2)=C(O)[C@@]2(C)CCCN12 [Example 236, (4aR)-4-Hydroxy-1-[8-[2-(2-methoxyethoxy)ethoxy]octyl]-4a-methyl-2-oxo-N-[4-(trifluoromethyl)-2-[6-(trifluoromethyl)pyrimidine-4-yl]phenyl]-6,7-dihydro-5H-pyrrolo[1,2-b]pyridazine-3-carboxamide] | 60%
10 | CN1[C@@H](C(C)(C)C)C(O)=C(C(=O)Nc2ccc(Cl)cc2-c2cc(C(F)(F)F)ncn2)C(=O)N1Cc1cccc(F)c1F [Example 237] | 51%
11 | CN1[C@@H](C(C)(C)C)C(O)=C(C(=O)Nc2ccc(C(F)(F)F)cc2-c2ccc(C(F)(F)F)nc2)C(=O)N1Cc1cccc(F)c1F [Example 238] | 47%
12 | CN1[C@@H](C(C)(C)C)C(O)=C(C(=O)Nc2ccc(Cl)cc2-c2ccc(C(F)(F)F)nc2)C(=O)N1Cc1cccc(F)c1F [Example 239] | 48%
13 | CN1[C@@H](C(C)(C)C)C(O)=C(C(=O)Nc2cc(F)c(Br)c(F)c2)C(=O)N1Cc1cccc(F)c1F [Example 240] | 72%
14 | Cc1nc(NC(=O)C2=C(O)[C@H](C(C)(C)C)N(C)N(Cc3cccc(F)c3F)C2=O)ccc1Br [Example 241] | 86%
15 | CN1[C@@H](C(C)(C)C)C(O)=C(C(=O)Nc2ccc(Br)c(C(F)(F)F)n2)C(=O)N1Cc1cccc(F)c1F [Example 242] | 69%
16 | CN1[C@@H](C(C)(C)C)C(O)=C(C(=O)Nc2ccc(Br)c(C(F)(F)F)c2)C(=O)N1Cc1cccc(F)c1F [Example 243] | 63%
17 | CN1[C@@H](C(C)(C)C)C(O)=C(C(=O)Nc2cccc(C(F)(F)F)n2)C(=O)N1Cc1cccc(F)c1F [Example 244] | 71%
18 | CCN1[C@@H](C(C)(C)C)C(O)=C(C(=O)Nc2ccc(Cl)cc2-c2ccc(C(F)(F)F)nc2)C(=O)N1Cc1cccc(F)c1F [Example 245] | 40%
19 | CCN1[C@@H](C(C)(C)C)C(O)=C(C(=O)Nc2cc(F)c(Br)c(F)c2)C(=O)N1Cc1cccc(F)c1F [Example 246] | 52%
20 | CC(C)(C)[C@H]1C(O)=C(C(=O)Nc2ccc(Cl)cc2-c2ccc(C(F)(F)F)nc2)C(=O)N(Cc2cccc(F)c2F)N1CC(F)(F)F [Example 247] | 51%
21 | CC(C)(C)[C@H]1C(O)=C(C(=O)Nc2cc(F)c(Br)c(F)c2)C(=O)N(Cc2cccc(F)c2F)N1CC(F)(F)F [Example 248] | 45%
22 | CC(C)[C@@H]1C(O)=C(C(=O)Nc2ccc(C(F)(F)F)cc2-c2cc(C(F)(F)F)ncn2)C(=O)N(Cc2cccc(F)c2F)N1C [Example 249] | 50%
23 | CC(C)[C@@H]1C(O)=C(C(=O)Nc2ccc(Cl)cc2-c2cc(C(F)(F)F)ncn2)C(=O)N(Cc2cccc(F)c2F)N1C [Example 250] | 52%
24 | CC(C)[C@@H]1C(O)=C(C(=O)Nc2ccc(Cl)cc2-c2ccc(C(F)(F)F)nc2)C(=O)N(Cc2cccc(F)c2F)N1C [Example 251] | 43%
25 | CC(C)[C@H]1C(O)=C(C(=O)Nc2ccc(C(F)(F)F)cc2-c2cc(C(F)(F)F)ncn2)C(=O)N(Cc2cccc(F)c2F)N1C [Example 252] | 53%

Row | SMILES | Rate of uptake inhibition (%) (1 µM)
26 | CC(C)[C@H]1C(O)=C(C(=O)Nc2ccc(C(F)(F)F)cc2-c2ccc(C(F)(F)F)nc2)C(=O)N(Cc2cccc(F)c2F)N1C [Example 253] | 40%
27 | CC(C)[C@H]1C(O)=C(C(=O)Nc2cc(F)c(Br)c(F)c2)C(=O)N(Cc2cccc(F)c2F)N1C [Example 254] | 58%
28 | CN1N(Cc2cccc(F)c2F)C(=O)C(C(=O)Nc2ccc(Cl)cc2-c2cc(C(F)(F)F)ncn2)=C(O)C12CCC2 [Example 255] | 80%
29 | CN1N(Cc2cccc(F)c2F)C(=O)C(C(=O)Nc2ccc(Cl)cc2-c2ccc(C(F)(F)F)nc2)=C(O)C12CCC2 [Example 256] | 79%
30 | CN1N(Cc2cccc(F)c2F)C(=O)C(C(=O)Nc2cc(F)c(Br)c(F)c2)=C(O)C12CCC2 [Example 257] | 71%
31 | CN1N(Cc2cccc(F)c2F)C(=O)C(C(=O)Nc2ccc(Br)c(C(F)(F)F)n2)=C(O)C12CCC2 [Example 258] | 87%
32 | Cc1nc(NC(=O)C2=C(O)C3(CCC3)N(C)N(Cc3cccc(F)c3F)C2=O)ccc1Br [Example 259] | 52%
33 | CN1N(Cc2cccc(F)c2F)C(=O)C(C(=O)Nc2ccc(C(F)(F)F)cc2-c2cc(C(F)(F)F)ncn2)=C(O)C12CCCC2 [Example 260] | 70%
34 | CN1N(Cc2cccc(F)c2F)C(=O)C(C(=O)Nc2ccc(Cl)cc2-c2cc(C(F)(F)F)ncn2)=C(O)C12CCCC2 [Example 261] | 77%
35 | Cc1nc(NC(=O)C2=C(O)C3(CCCC3)N(C)N(Cc3cccc(F)c3F)C2=O)ccc1Br [Example 262] | 43%
36 | CN1N(Cc2cccc(F)c2F)C(=O)C(C(=O)Nc2ccc(Br)c(C(F)(F)F)n2)=C(O)C12CCCC2 [Example 263] | 66%
37 | CN1[C@@H](C(C)(C)C)C(O)=C(C(=O)Nc2ccc(Cl)cc2-c2cc(C(F)(F)F)ncn2)C(=O)N1Cc1ccc(OCCN2CCOCC2)c(F)c1F [Example 265, (3S)-3-tert-Butyl-N-[4-chloro-2-[6-(trinuoromethyl)pyrimidin-4-yl]phenyl]-1-[[2,3-difluoro-4-(2-morpholin-4-ylethoxy)phenyl]methyl]-4-hydroxy-2-methyl-6-oxo-3H-pyridazine-5-carboxamide] | 52%
38 | CN1[C@@H](C(C)(C)C)C(O)=C(C(=O)Nc2ccc(C(F)(F)F)cc2-c2ccc(C(F)(F)F)nc2)C(=O)N1Cc1ccc(OCCN2CCOCC2)c(F)c1F [Example 266] | 62%
39 | CSc1ccc(-c2cc(C(F)(F)F)ccc2NC(=O)C2=C(O)[C@H](C(C)(C)C)N(C)N(Cc3ccc(OCCN4CCOCC4)c(F)c3F)C2=O)cn1 [Example 268] | 63%
40 | CN1[C@@H](C(C)(C)C)C(O)=C(C(=O)Nc2ccc(C(F)(F)F)cc2-c2ccnc(C#N)c2)C(=O)N1Cc1ccc(OCCN2CCOCC2)c(F)c1F [Example 271] | 60%
41 | CN1[C@@H](C(C)(C)C)C(O)=C(C(=O)Nc2ccc(Cl)cc2-c2cc(C#N)ncn2)C(=O)N1Cc1ccc(OCCN2CCOCC2)c(F)c1F [Example 272] | 43%
42 | CN1[C@@H](C(C)(C)C)C(O)=C(C(=O)Nc2cnc(C(F)(F)F)nc2-c2ccc(C(F)(F)F)nc2)C(=O)N1Cc1ccc(OCCN2CCOCC2)c(F)c1F [Example 273] | 41%
43 | Cc1c(C#N)ncnc1-c1cc(Cl)ccc1NC(=O)C1=C(O)[C@H](C(C)(C)C)N(C)N(Cc2ccc(OCCN3CCOCC3)c(F)c2F)C1=O [Example 274] | 43%
44 | Cc1c(Cl)ncnc1-c1cc(Cl)ccc1NC(=O)C1=C(O)[C@H](C(C)(C)C)N(C)N(Cc2ccc(OCCN3CCOCC3)c(F)c2F)C1=O [Example 275] | 42%
45 | Cc1c(Cl)ncnc1-c1cc(C(F)(F)F)ccc1NC(=O)C1=C(O)[C@H](C(C)(C)C)N(C)N(Cc2ccc(OCCN3CCOCC3)c(F)c2F)C1=O [Example 276] | 68%
46 | CN1[C@@H](C(C)(C)C)C(O)=C(C(=O)Nc2ccc(C(F)(F)F)cc2C(F)(F)F)C(=O)N1Cc1ccc(OCCN2CCOCC2)c(F)c1F [Example 277] | 41%
47 | Cc1c(-c2cc(C(F)(F)F)ccc2NC(=O)C2=C(O)[C@H](C(C)(C)C)N(C)N(Cc3ccc(OCCN4CCOCC4)c(F)c3F)C2=O)ncnc1C(F)(F)F [Example 278] | 69%
48 | CC(C)[C@H]1C(O)=C(C(=O)Nc2ccc(C(F)(F)F)cc2-c2ccc(C(F)(F)F)nc2)C(=O)N(Cc2ccc(OCCN3CCOCC3)c(F)c2F)N1C [Example 280] | 50%
49 | CC(C)[C@H]1C(O)=C(C(=O)Nc2ccc(Cl)cc2-c2ccc(C(F)(F)F)nc2)C(=O)N(Cc2ccc(OCCN3CCOCC3)c(F)c2F)N1C [Example 281] | 41%

Reference: patent publication EP3928779A1 (Chugai Seiyaku Kabushiki Kaisha, priority 2014, dated 2016)
